Data published in patent US6720423B2, “Dihydrobenzofuran and dihydrobenzothiophene 2,4-pentadienoic acid derivatives having selective activity for retinoid X (RXR) receptors” (Allergan, Inc., priority 2002, dated 2004).

Key:
[1] = target: T1, RARβ (Homo sapiens, UniProt P10826); experiment: ligand binding assay, RARβ; details: second entry of cell, read-out: RAR Bind. Ki (nM) β
T1 sequence (P10826 1-455): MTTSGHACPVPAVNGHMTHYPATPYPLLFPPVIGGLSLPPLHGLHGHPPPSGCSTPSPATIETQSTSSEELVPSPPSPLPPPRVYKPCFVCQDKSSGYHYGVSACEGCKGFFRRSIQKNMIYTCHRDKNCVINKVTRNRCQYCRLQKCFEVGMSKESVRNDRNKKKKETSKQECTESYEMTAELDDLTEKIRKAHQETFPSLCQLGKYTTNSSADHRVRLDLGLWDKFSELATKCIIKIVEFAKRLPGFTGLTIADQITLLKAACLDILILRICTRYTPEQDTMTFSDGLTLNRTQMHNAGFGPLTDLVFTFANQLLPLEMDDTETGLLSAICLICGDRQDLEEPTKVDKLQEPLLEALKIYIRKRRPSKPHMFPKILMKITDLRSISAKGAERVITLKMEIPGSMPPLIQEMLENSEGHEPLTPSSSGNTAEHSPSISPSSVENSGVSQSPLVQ
Excerpt: (§1) A holoreceptor transactivation assay and a ligand binding assay which measure the antagonist/agonist like activity of the compounds of the invention, or their ability to bind to the several retinoid receptor subtypes, respectively, are described in published PCT Application No. WO WO93/11755 (particularly on pages 30-33 and 37-41) published on Jun. 24, 1993, the specification of which is also incorporated herein by reference. A detailed experimental procedure for holoreceptor transactivations has been described by Heyman et al. Cell 68, 397-406, (1992); Allegretto et al. J. Biol. Chem. 268, 26625-26633, and Mangelsdorf et al. The Retinoids: Biology, Chemistry and Medicine, pp 319-349, Raven Press Ltd., New York, which are expressly incorporated herein by reference. The results obtained in this assay are expressed in EC50 numbers, as they are also in the chimeric receptor transactivation assay. The results of ligand binding assay are expressed in Kd numbers. (See Cheng et al. Biochemical Pharmacology Vol. 22 pp 3099-3108, expressly incorporated herein by reference.)

[2] = target: T2, RXRα (Homo sapiens, UniProt P19793); experiment: ligand binding assay, RXRα; details: last entry of cell, read-out: RXR Bind Ki (nM) α
T2 sequence (P19793 1-462): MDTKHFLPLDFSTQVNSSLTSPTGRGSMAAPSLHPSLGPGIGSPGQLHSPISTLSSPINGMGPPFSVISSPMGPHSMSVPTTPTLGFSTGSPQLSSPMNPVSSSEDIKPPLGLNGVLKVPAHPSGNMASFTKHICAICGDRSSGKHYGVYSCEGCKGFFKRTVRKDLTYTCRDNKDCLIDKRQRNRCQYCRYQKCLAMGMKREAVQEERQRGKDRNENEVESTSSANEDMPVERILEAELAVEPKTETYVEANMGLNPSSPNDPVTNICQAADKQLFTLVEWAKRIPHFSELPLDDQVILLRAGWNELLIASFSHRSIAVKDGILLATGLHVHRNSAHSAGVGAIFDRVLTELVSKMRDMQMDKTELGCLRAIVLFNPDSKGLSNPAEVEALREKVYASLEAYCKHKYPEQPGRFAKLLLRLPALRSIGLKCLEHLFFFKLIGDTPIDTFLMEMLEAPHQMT
Excerpt: as §1

[3] = target: T3, RXRβ (UniProt P28704); experiment: ligand binding assay, RXRβ; set-up: other: RXRβ; last entry of cell; details: last entry of cell, read-out: RXR Bind Ki (nM) β
T3 sequence (P28704 1-520): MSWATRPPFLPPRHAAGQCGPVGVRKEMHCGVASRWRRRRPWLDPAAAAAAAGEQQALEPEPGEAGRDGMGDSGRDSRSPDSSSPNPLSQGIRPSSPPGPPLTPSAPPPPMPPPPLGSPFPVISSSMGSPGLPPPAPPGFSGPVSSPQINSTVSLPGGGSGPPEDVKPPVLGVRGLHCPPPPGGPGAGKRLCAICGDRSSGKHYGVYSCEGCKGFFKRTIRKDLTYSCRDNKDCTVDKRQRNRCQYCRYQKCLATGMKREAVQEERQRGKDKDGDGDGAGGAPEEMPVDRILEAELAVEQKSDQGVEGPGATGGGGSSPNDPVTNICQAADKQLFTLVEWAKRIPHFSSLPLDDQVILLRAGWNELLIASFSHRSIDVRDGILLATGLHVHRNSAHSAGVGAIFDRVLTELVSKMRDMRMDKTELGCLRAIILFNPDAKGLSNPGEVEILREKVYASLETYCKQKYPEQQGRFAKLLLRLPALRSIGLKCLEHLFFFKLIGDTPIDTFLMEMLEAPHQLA
Excerpt: as §1

[4] = target: T3, RXRβ; experiment: receptor transactivation assay, RXRβ; type: cell-based; set-up: RXR Trans; other: RXRβ; first entry of cell; details: for EC50: first entry of cell, read-out: RXR Trans. EC50 (nM) β; for RXR Trans. β, number in parentheses after EC50: parenthesised number, not defined in the patent
Excerpt: as §1

[5] = target: T4, RXRγ (UniProt P28705); experiment: receptor transactivation assay, RXRγ; type: cell-based; set-up: RXR Trans; other: RXRγ; first entry of cell; details: for EC50: first entry of cell, read-out: RXR Trans. EC50 (nM) γ; for RXR Trans. γ, number in parentheses after EC50: parenthesised number, not defined in the patent
T4 sequence (P28705 1-463): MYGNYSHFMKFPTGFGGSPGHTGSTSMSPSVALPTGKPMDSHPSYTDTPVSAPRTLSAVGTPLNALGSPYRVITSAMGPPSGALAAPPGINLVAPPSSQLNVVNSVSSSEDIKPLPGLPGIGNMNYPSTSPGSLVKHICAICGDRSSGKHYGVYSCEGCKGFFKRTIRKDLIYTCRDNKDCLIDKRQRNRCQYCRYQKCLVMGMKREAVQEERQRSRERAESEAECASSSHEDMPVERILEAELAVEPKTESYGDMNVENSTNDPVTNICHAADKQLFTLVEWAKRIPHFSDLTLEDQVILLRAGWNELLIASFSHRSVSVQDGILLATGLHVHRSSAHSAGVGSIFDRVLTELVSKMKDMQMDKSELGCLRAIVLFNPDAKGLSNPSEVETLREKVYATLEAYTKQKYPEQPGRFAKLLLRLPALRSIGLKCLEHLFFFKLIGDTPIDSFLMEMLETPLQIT
Excerpt: as §1

| SMILES | Ki [1] [nM] | Ki [2] [nM] | Ki [3] [nM] | EC50 [4] [nM] | RXR Trans. β, number in parentheses after EC50 [4] | EC50 [5] [nM] | RXR Trans. γ, number in parentheses after EC50 [5] |
| --- | --- | --- | --- | --- | --- | --- | --- |
| CC(/C=C/[C@@H]1C[C@]1(C)c1cc(-c2ccccc2C)c2c(c1)C(C)(C)CO2)=C\C(=O)O [Compound 26, 5-[(1S,2S)-2-(3,3-Dimethyl-7-o-tolyl-2,3-dihydro-benzofuran-5-yl)-2-methyl-cyclopropyl]-3-methyl-penta-2E,4E-dienoic acid] | > 10000 | 1.2 | 1.9 | 0.65 | 99 | 0.32 | 107 |
| CCCCCCCc1ccccc1-c1cc([C@@]2(C)C[C@H]2/C=C/C(C)=C/C(=O)O)cc2c1OCC2(C)C [Compound 28] | 3740 | 35 | 111 | > 1000 | – | 850 | 88 |
| CC(/C=C/[C@@H]1C[C@]1(C)c1cc(-c2ccc(C(C)(C)C)cc2)c2c(c1)C(C)(C)CO2)=C\C(=O)O [Compound 30, 5-{(1S, 2S)-2-[7-(4-tert-Butyl-phenyl)-3,3-dimethyl-2,3-dihydro-benzofuran-5-]-2-methyl-cyclopropyl}-3-methyl-pent-2E,4E-dienoic Acid] | > 10000 | 129 | 441 | > 1000 | 50 | > 1000 | 80 |
| COc1ccc(-c2cc([C@@]3(C)C[C@H]3/C=C/C(C)=C/C(=O)O)cc3c2OCC3(C)C)cc1 [Compound 32, (E)-3-((E)-2-{(1S,2S)-2-[7-(4-Methoxy-phenyl)-3,3-dimethyl-2,3-dihydro-benzofuran-5-yl]-2-methyl-cyclopropyl}-vinyl)-but-2-enoic acid] | 15000 | 66 | 926 | > 1000 | – | 561 | 106 |
| CC(/C=C/[C@@H]1C[C@]1(C)c1cc(-c2ccc(F)cc2)c2c(c1)C(C)(C)CO2)=C\C(=O)O [Compound 34, (E)-3-((E)-2-{(1S,2S)-2-[7-(4-Fluoro-phenyl)-3,3-dimethyl-2,3-dihydro-benzofuran-5-yl]-2-methyl-cyclopropyl}-vinyl)-but-2-enoic acid] | 8750 | 0.5 | 4 | 4.55 | 93 | 0.56 | 109 |

Results, then the compound that gave them:

| Ki [1] [nM] | Ki [2] [nM] | Ki [3] [nM] | EC50 [4] [nM] | RXR Trans. β, number in parentheses after EC50 [4] | EC50 [5] [nM] | RXR Trans. γ, number in parentheses after EC50 [5] | SMILES |
| --- | --- | --- | --- | --- | --- | --- | --- |
| > 10000 | 114 | 312 | > 1000 | – | 743 | 109 | CC(/C=C/[C@@H]1C[C@@H]1c1ccc2c(c1)C(C)(C)CO2)=C\C(=O)O [Compound 36, (E)-3-{(E)-2-F[(1S,2S)-2-(3,3-Dimethyl-2,3-dihydro-benzofuran-5-yl)-cyclopropyl]-vinyl}-but-2-enoic acid] |
| > 10000 | 306 | 557 | 1360 | – | 7680 | 142 | CCCCC(O)CCc1cc([C@@]2(C)C[C@H]2/C=C/C(C)=C/C(=O)O)cc2c1OCC2(C)C (stereo partly drawn) [Compound 38, (E)-3-((E)-2-{(1S,2S)-2-[7-(3-Hydroxy-heptyl)-3,3-dimethyl-2,3-dihydro-benzofuran-5-yl]-2-methyl-cyclopropyl}-vinyl)-but-2-enoic acid] |
| 22000 | 41 | 69 | 2040 | 103 | 395 | 94 | CCCCC(=O)CCc1cc([C@@]2(C)C[C@H]2/C=C/C(C)=C/C(=O)O)cc2c1OCC2(C)C [Compound 40] |
